PMC6749314, “Development of the Tumor-Specific Antigen-Derived Synthetic Peptides as Potential Candidates for Targeting Breast and Other Possible Human Carcinomas” (Molecules, 2019)
Where two headings read alike, the source gives them in different places.

What was measured:
[1] = biological target: human epidermal growth factor receptor 2 (HER2) (human (endogenous in SKBR3, MCF7, T47D)) (UniProt P04626); experiment: radioligand binding; saturation binding of 99mTc-labeled peptide (0.1-30 nM) to ~300,000 MCF7 cells in low-serum media, 60 min, room temperature; non-specific binding with ~200-fold molar excess of unlabeled peptide; nonlinear regression
[2] = biological target: human epidermal growth factor receptor 2 (HER2) (human (endogenous in SKBR3, MCF7, T47D)) (UniProt P04626); experiment: radioligand binding; saturation binding of 99mTc-labeled peptide (0.1-30 nM) to ~300,000 T47D cells in low-serum media, 60 min, room temperature; non-specific binding with ~200-fold molar excess of unlabeled peptide; nonlinear regression
[3] = assay type: physicochemical
Description: Table 1 Characterization of ^99mTc-HER2 and ^99mTc-MUC1 peptides. | column: Log P (Octanol/Saline)

[4] = Radio-HPLC retention time on C18 reversed-phase column; assay type: physicochemical; conditions: Econosphere C18 (10 μm, 250 × 4.6 mm), 0.1% TFA water/CH3CN, 5 to 95% B over 30 min, 1.1 mL/min, longer retention ascribed to higher lipophilicity
Experimental: The HPLC analysis and purification of the peptides were performed on a Shimadzu HPLC system using Econosphere C18 reversed-phase column (10 μm, 250 × 4.6 mm, Alltech, Deerfield, IL, USA). For HPLC experiments, a gradient solvent system of 0.1% (v/v) TFA in water (solvent A) and 0.1% (v/v) TFA in CH3CN (solvent B) at a flow rate of 1.1 mL/min was used. The HPLC gradient began with a solvent composition of 95% A and 5% B from 0 to 2.5 min followed by a linear gradient of 95% A and 5% B to 5% A and 95% B over 30 min. The gradient remained at this position for 3 min before switching back to 95% A and 5% B for another 7 min. The main peak of each radiolabeled peptide was isolated, and acetonitrile then evaporated under a stream of nitrogen gas. The HPLC system (Shimadzu Corporation, Kyoto, Japan) was equipped with a UV-VIS detector (Shimadzu Corporation, Kyoto, Japan) set at 220 nm, a Flow-count γ-radioactivity detection system (Bioscan Inc., Washington, DC, USA) and the Lauralite HPLC chromatogram analysis program (LabLogic Systems Ltd., Sheffield, UK). Radiochemical purity was estimated by evaluating radioactivity peaks eluted for each ^99mTc-labeled peptide from the HPLC column and calculating the area under the peak (ROI). The HPLC-purified compounds were reconstituted in sterile saline and used for in vitro and in vivo experiments.

[5] = tested on: MCF7 breast cancer cell line; experiment: In vitro tumor cell binding (saturation, Kd); design: species or system human; conditions: ~300,000 cells, 0.1-30 nM radiopeptide, 60 min, room temperature, duplicate, non-specific with ~200-fold excess unlabeled peptide, mean ± SD
Experimental: (§1) The cell-binding studies of ^99mTc-labeled HER2 and MUC1 peptides into respective HER2 and MUC1-positive human breast cancer cell lines (American Type Culture Collection, Rockville, MD, USA) was performed according to the method described previously. In brief, ~300,000 cells (in 0.3 mL low-serum media) were incubated with various amounts of radiopeptides, ranging between 0.1 and 30 nM of peptides (prepared from the serial dilutions of HPLC-purified radiopeptides), in duplicate for 60 min at room temperature. Incubation was terminated by dilution with cold saline (0.3 mL) and the cells were pelleted by centrifugation. The cell-pellets was then rapidly washed with cold saline to remove any unbound peptide and centrifuged to collect supernatants. Radioactivity in the cell-pellet and the washings was measured in a γ-counter. Non-specific binding was determined in the presence of ~200-fold molar excess of unlabeled peptide. Specific binding was calculated by subtracting the non-specifically bound radioactivity from that of the total binding. The dissociation constant (Kd) was calculated using a plot of specific cell-bound radioactivity versus increasing concentrations of the radiopeptide using a nonlinear regression analysis program (GraphPad Prism Software Inc., San Diego, CA, USA).

[6] = tested on: T47D breast cancer cell line; experiment: In vitro tumor cell binding (saturation, Kd); design: species or system human; conditions: for Kd: T47D, ~300,000 cells, 0.1-30 nM radiopeptide, 60 min, room temperature, duplicate, non-specific with ~200-fold excess unlabeled peptide, mean ± SD
Experimental: as §1

MCF7 cells = experiment: Cellular internalization (acid wash); assay type: cell-based, human; conditions: % of cell-surface bound radiopeptide internalized, acidic buffer pH 5.0, 10 min, 37 °C
Experimental: (§2) In order to differentiate between cell-surface bound and cellular internalized radioactivity, cell pellet was treated with 0.3 mL of acidic buffer (0.02 M sodium acetate in saline, pH 5.0) for 10 min at 37 °C at the end of the binding experiment, followed by centrifugation and washing with cold acidic buffer. The amount of cell surface-bound (acid-wash) and internalized (acid-resistant) radioactivity was determined by measuring the radioactivity of the supernatant and the cell-pellet, respectively, in a γ-counter.

T47D cells = experiment: Cellular internalization (acid wash); assay type: cell-based, human; conditions: % of cell-surface bound radiopeptide internalized, acidic buffer pH 5.0, 10 min, 37 °C
Experimental: as §2

[7] = design: species or system Balb/c mice; conditions: mouse, in vivo, iv
Experimental: Approval for the animal protocol used in this study was obtained from the Institutional Animal Care and Use Committee. Animal studies were conducted according to the international regulations governing the safe and proper use of laboratory animals [48]. In vivo biodistribution studies were performed on healthy Balb/c mice (n = 3–5 in each group, body mass 19–22 g) at 1 and 4 h after i.v. injection of the HPLC-purified radiopeptide (100 μL, 10–15 μCi, total peptide dose ~10 ng) via the lateral tail vein as described previously [54]. Mice were euthanized by cervical dislocation at specified times, the selected tissues/organs were removed, and radioactivity was measured in a γ-counter. Uptake of radioactivity in the tissues and organs was expressed as the percent injected dose per gram (% ID/g) of tissue/organ, which was calculated by comparison with standard solutions representing 10% of the injected dose per animal. For the clearance studies, radioactivity in the urine with bladder is expressed as the percent of the injected dose per organ (% ID/organ).

[8] = tested on: MDA-MB-231 breast xenografts; experiment: In vivo tumor targeting, MDA-MB-231 xenografts (negative control); conditions: nude mice, HER2-/MUC1-negative MDA-MB-231 xenografts, mean ± SD
MCF7 tumor xenografts = conditions: for tumor uptake: nude mice, mean ± SD
Experimental: (§3) In vivo biodistribution studies were performed on healthy Balb/c mice (n = 3–5 in each group, body mass 19–22 g) at 1 and 4 h after i.v. injection of the HPLC-purified radiopeptide (100 μL, 10–15 μCi, total peptide dose ~10 ng) via the lateral tail vein as described previously [54]. Mice were euthanized by cervical dislocation at specified times, the selected tissues/organs were removed, and radioactivity was measured in a γ-counter. Uptake of radioactivity in the tissues and organs was expressed as the percent injected dose per gram (% ID/g) of tissue/organ, which was calculated by comparison with standard solutions representing 10% of the injected dose per animal. For the clearance studies, radioactivity in the urine with bladder is expressed as the percent of the injected dose per organ (% ID/organ).
(§4) Approximately 7 million HER2-positive SKBR3 cells and MUC1-positive MCF7 and T47D breast tumor xenografts were injected subcutaneously into a group of nude female mice and allowed to grow for 4 to 6 weeks. After sufficient growth of tumors, the animals were sacrificed and the uptake of ^99mTc-HER2 and ^99mTc-MUC1 by the tumors and other major organs was determined by biodistribution experiments, as described above.
(§5) In general, for preclinical gamma camera imaging, each tumor-bearing mouse model was intravenously injected with ~200 μCi of ^99mTc-HER2 or ^99mTc-MUC1 peptide through the tail vein. Mouse static planar images were then acquired at 1 h after the radiotracer injection by a portable hand-held γ-camera equipped with CsI(Tl) scintillation detector, with intrinsic spatial resolution of 2.45 mm (IP guardian 2, Li-Tech, Italy).

T47D tumor xenografts = conditions: for tumor uptake: nude mice, mean ± SD
Experimental: as §3, §4

[9] = tested on: HER2-positive SKBR3 breast cancer cell line; experiment: In vitro tumor cell binding (saturation, Kd); design: species or system human
Experimental: as §1

SKBR3 cells = experiment: Cellular internalization (acid wash); assay type: cell-based, human; conditions: % of cell-surface bound radiopeptide internalized, acidic buffer pH 5.0, 10 min, 37 °C
Experimental: as §2

[10] = tested on: HER2-positive SKBR3 tumor xenografts; conditions: for tumor uptake: nude mice, n = 3-5, mean ± SD
Experimental: as §3, §4, §5

p185HER2/neu = conditions: binding to p185HER2/neu; ref [22],[23],[24]; cited from earlier work
Description: AHNP peptide was able to disable HER2 tyrosine kinases in vitro and in vivo similar to the monoclonal antibody from which it was derived. […] It has been shown that AHNP diminished the early tyrosine phosphorylation of p185HER2/neu, and inhibited proliferation of p185HER2/neu overexpressing tumor cells in ...

[11] = tested on: breast carcinoma xenografts; conditions: radiolabeled KCCYSL peptides, ref [8],[19]; cited from earlier work
Description: Several small peptide molecules have been developed in recent years for targeting HER2-positive breast cancer. For example, a 6-amino-acid containing peptide, KCCYSL, was discovered by the phage display method after in vitro selection with a recombinant ERBB2 extracellular domain. The KCCYSL peptide, derivatized with different metal chelators (i.e., DOTA, NOTA, CB-TE2A, and DAP) and radiolabeled with radionuclide metal ions (e.g., ^111In, ^64Cu, ^99mTc), has been successfully used for in vivo imaging of HER2 overexpressing tumor models. The tumor cell binding affinity (Kd) of KCCYSL for ...

[12] = MCF7 xenografts, 1 h p.i., unblocked

## 99mTc-HER2 hybrid peptide (Acetyl-Gly-Gly-Cys-ALA-Lys-Ile-Phe-Gly-Ser-Leu-Ala-Phe-Leu-Lys-Cys-Cys-Tyr-Ser-Leu-CONH2)
[1]
  Kd: 158 nM
[2]
  Kd: 169 nM

## Ac-GGCEPDTRP-NH2 [^99mTc-MUC1]
[3]
  Log P (Octanol/Saline): −2.22 ± 0.12
[4]
  HPLC Retention Time: 14.10 min
[5]
  Kd: 10.3 ± 1.55 nM
[6]
  Kd: 3.48 ± 0.84 nM
[6]; ratio of Kd values
  binding affinity higher to T47D cell line compared to MCF7 cell line: 3 fold
MCF7 cells
  % Internalization: 18.92 ± 2.16%
T47D cells
  % Internalization: 21.11 ± 2.95%
[7]
  radioactivity found in the urine: up to 47.0 ± 6.28 % ID
[8]; 1 h p.i.
  tumor uptake: 0.64 ± 0.13 % ID/g
[8]; 4 h p.i.
  tumor uptake: 0.41 ± 0.10 % ID/g
MCF7 tumor xenografts; MCF7 xenografts, 1 h p.i.
  tumor-to-blood ratio: 2.39
  tumor-to-muscle ratio: 18.47
MCF7 tumor xenografts; MCF7 xenografts, 4 h p.i.
  tumor-to-blood ratio: 1.09
  tumor-to-muscle ratio: 11.20
  tumor uptake: 1.12 ± 0.30 % ID/g
MCF7 tumor xenografts; MCF7 xenografts, over 4 h
  washout from the tumors: 60%
MCF7 tumor xenografts; MUC1-positive (MCF7) xenografts, 100 μg of unlabeled MUC1 peptide 30 min before injection of radiopeptide
  tumor uptake, blocked: 1.05 ± 0.21 % ID/g
MCF7 tumor xenografts; MUC1-positive (MCF7) xenografts, 100 μg unlabeled MUC1 peptide 30 min before, P = 0.02
  reduction of tumor uptake by blocking dose: approximately 62%
MCF7 tumor xenografts; mouse, in vivo
  hepatobiliary excretion (liver + intestines): below 13 % ID
  radioactivity excreted in the urine: up to 49 % ID
MCF7 tumor xenografts; [12]
  tumor uptake: 2.77 ± 0.63 % ID/g
MCF7 tumor xenografts; nude mouse, MCF7 xenograft, 1 h p.i., ~200 μCi i.v.
  gamma camera imaging of tumor: detectable in the image
T47D tumor xenografts; T47D xenografts, 1 h p.i.
  tumor-to-blood ratio: 3.27
  tumor-to-muscle ratio: 12.62
  tumor uptake: 2.65 ± 0.54 % ID/g
T47D tumor xenografts; T47D xenografts, 4 h p.i.
  tumor-to-muscle ratio: 11.40
  tumor uptake: 1.14 ± 0.21 % ID/g
T47D tumor xenografts; mouse, in vivo
  accumulation in the kidneys: 2.26 ± 0.36 % ID/g
  cleared from the kidneys: 48%
  hepatobiliary excretion: below 13 % ID
  initial accumulation in the kidneys: 4.35 ± 1.0 % ID/g
  radioactivity remaining in the blood circulation: 0.30 ± 0.07 % ID/g

## Acetyl-Gly^19-Gly^18-Cys^17-ALA^16-Lys^15-Ile^14-Phe^13-Gly^12-Ser^11-Leu^10-Ala^9-Phe^8-Leu^7-Lys^6-Cys^5-Cys^4-Tyr^3-Ser^2-Leu^1-CONH2 [^99mTc-HER2]
[3]
  Log P (Octanol/Saline): 1.38 ± 0.06
[4]
  HPLC Retention Time: 20.0 min
[9]; SKBR3, ~300,000 cells, 0.1-30 nM radiopeptide, 60 min, room temperature, duplicate, non-specific with ~200-fold excess unlabeled peptide, mean ± SD
  Kd: 50 ± 14.2 nM
[9]; ratio of Kd values
  binding affinity higher for SKBR3 cells than MCF7 and T47D cell lines: more than 3 fold
[5]
  Kd: 158 ± 24.6 nM
[6]
  Kd: 169 ± 22.3 nM
MCF7 cells
  % Internalization: 12.16 ± 3.20%
SKBR3 cells
  % Internalization: 19.90 ± 5.35%
T47D cells
  % Internalization: 11.85 ± 2.83%
[7]
  radioactivity found in the urine: up to 40.0 ± 5.10 % ID
[8]; 1 h p.i.
  tumor uptake: 0.66 ± 0.13 % ID/g
[8]; 4 h p.i.
  tumor uptake: 0.31 ± 0.10 % ID/g
[10]; SKBR3 xenografts, 1 h p.i.
  tumor-to-blood ratio: 1.54
  tumor-to-muscle ratio: 9.37
[10]; SKBR3 xenografts, 4 h p.i.
  tumor-to-blood ratio: 1.34
  tumor-to-muscle ratio: 8.71
  tumor uptake: 1.22 ± 0.25 % ID/g
[10]; SKBR3 xenografts, over 4 h
  washout from the tumors: 57%
[10]; SKBR3 xenografts, 100 μg of HER2 peptide 30 min before injection of radiopeptide
  tumor uptake, blocked: 1.07 ± 0.24 % ID/g
[10]; SKBR3 xenografts, 100 μg of HER2 peptide 30 min before, P = 0.02
  reduction of tumor uptake by blocking dose: approximately 62%
[10]; mouse, in vivo
  hepatobiliary excretion (liver + intestines): below 15 % ID
  kidney accumulation and retention: up to 10 % ID/g
  radioactivity excreted in the urine: up to 41 % ID
[10]; SKBR3 xenografts, 1 h p.i., unblocked
  tumor uptake: 2.81 ± 0.79 % ID/g
[10]; nude mouse, SKBR3 xenografts, 1 h p.i., ~200 μCi i.v.
  gamma camera imaging of tumor: detectable in the image
MCF7 tumor xenografts; [12]
  tumor uptake: 1.33 ± 0.41 % ID/g
MCF7 tumor xenografts; MCF7 xenografts, 4 h p.i.
  tumor uptake: 0.91 ± 0.22 % ID/g
T47D tumor xenografts; T47D xenografts, 1 h p.i.
  tumor uptake: 1.25 ± 0.32 % ID/g
T47D tumor xenografts; T47D xenografts, 4 h p.i.
  tumor uptake: 0.80 ± 0.17 % ID/g

## FCDGFYACYADVGGG [AHNP, anti-HER2/neu peptidomimetic designed from heavy-chain CDR3 loop of trastuzumab]
p185HER2/neu
  Kd: 150 nM

## KCCYSL [literature values for chelator-derivatized, radiolabeled forms]
[11]
  tumor uptake: below 1 % ID/g
